Data reported in the METLIN SMRT retention time set (Domingo-Almenara et al. 2019).

Experiment: gradient 5% acetonitrile 3 min, to 50% in 2 min, to 85% in 15 min, held 3 min, 100 µL/min
Settings: column: Zorbax Extend-C18 2.1 x 50 mm; eluents: water / acetonitrile, 0.1% formic acid
How it was run: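 Pure standards were run in mixtures of ~100 molecules by HPLC coupled to a quadrupole time-of-flight mass spectrometer. The column was a Zorbax Extend-C18 (2.1 × 50 mm, 1.8 μm) at 100 μL/min, with water and acetonitrile each containing 0.1% formic acid, in positive and negative ionization mode. Dead and dwell volumes were 40 μL and 900 μL. Retention time was taken from computationally picked adduct peaks, each manually inspected, with data collected over 3 months.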

Structure (SMILES) | RP-LC retention time [s]
COc1ccc(C2Cn3nc(-c4nc(C(C)(C)C)no4)cc3CO2)cc1 (configuration not stated) | 611
COc1ccc(S(=O)(=O)N2C[C@@H]3C[C@H](NC(=O)c4cccs4)[C@H]2C3)cc1Cl | 792
Fc1cccc(CN2CCO[C@@H](COc3ccccn3)[C@@H]2c2ccccc2)c1 | 898
Cc1noc(CNC(=O)C2CCN(C(=O)c3ccc(S(=O)(=O)N(C)C)cc3)CC2)n1 | 618
CCCN1CCC(c2cccc(S(C)(=O)=O)c2)CC1 | 600
COc1ccc2c(c1)C1(CCN(S(=O)(=O)c3ccc(Cl)cc3)C1)C(=O)N2 (configuration not stated) | 894
COc1ccc(-c2cc3nn(CC(=O)NCc4cccc(OC)c4)c(=O)n3c(C)n2)cc1 | 875
Cc1cc(OCC(O)CNCc2ccco2)ccc1Cl (configuration not stated) | 588
O=C(c1ccc(Cl)s1)N1CCC(N(C(=O)C2CC2)C2CCOCC2)CC1 | 773
CC1=C(c2ccc(F)cc2)S(=O)(=O)N=C1N1CCC(C(=O)NC(C)C)CC1 | 741
CCOc1nccnc1N1CCC(NC(=O)Cc2cccs2)C1 (configuration not stated) | 921
CCn1nccc1C(=O)N1CC(n2cc(C(=O)N3CCOCC3)nn2)C1 | 610
CCCn1c(=O)c(C)nc2cc(-c3noc(-c4ccc5c(c4)OCO5)n3)ccc21 | 1150
O=C(Cn1ccn2nc(-c3ccc(F)cc3)c(CO)c2c1=O)Nc1cc(F)ccc1F | 843
O=c1c2nc(-c3ccc(F)cc3F)cn2ccn1-c1ccc(F)cc1 | 862
O=C(Nc1ccc(F)cc1)N1CCCC1c1nc(-c2cccc(F)c2)no1 (configuration not stated) | 965
CC(C)CC(=O)N1CCc2cc(CNS(=O)(=O)c3ccc4c(c3)CC(=O)N4C)ccc21 | 793
COc1ccc(NC(=O)Cc2csc(NC(=O)c3ccc(=O)[nH]c3)n2)cc1Cl | 637
O=S(=O)(Nc1cc(F)ccc1F)c1c[nH]c2ncccc12 | 715
COc1ccc(NC(=O)N2CCC3(CC2)CN(c2ccccc2)C3=O)cc1OC | 771
CCCN1C(=O)COc2ccc(-c3noc(-c4ccccc4)n3)cc21 | 1210
CCn1c(=O)c2ccccc2n(Cc2nc(-c3cccc(C)c3)no2)c1=O | 1070
CC(=O)c1cccc(NC(=O)c2ccc(Cl)s2)c1 | 832
COC[C@@H]1CN(C(=O)c2ccc(C#N)cc2)C[C@H]1C(N)=O | 571
COc1ccc(-c2noc(-c3cccn(CC(=O)Nc4ccc5c(c4)OCO5)c3=O)n2)cc1OC | 741
O=C(CN1C(=O)CC(c2ccccc2)S(=O)(=O)c2ccccc21)NC1CCCC1 (configuration not stated) | 831
CN(C(=O)Cn1ccc2c(=O)n(C)c(=O)n(C)c21)c1cccc(Cl)c1 | 709

Structure (SMILES) | RP-LC retention time [s]
CCOc1ccccc1CNS(=O)(=O)c1ccc(-c2c(C)noc2C)cc1 | 995
CN1CCN(C(CNC(=O)c2ccc(Br)o2)c2ccc(N(C)C)cc2)CC1 (configuration not stated) | 566
O=C(NCCC1CCN(C(=O)Nc2ccc(F)cc2F)CC1)c1cccs1 | 737
CCn1ncn2cc(S(=O)(=O)NCc3ccccc3)cc2c1=O | 800
CCCCCCCNCc1ccc2c(c1)n(C)c(=O)n2C | 641
CCc1nc(-c2csc(S(=O)(=O)N3CCCC(C(=O)Nc4ccc(F)c(F)c4)C3)c2)no1 (configuration not stated) | 1090
Cc1ccc(N2C(=O)C3N=NN(Cc4nc(-c5cccc(C(F)(F)F)c5)no4)C3C2=O)cc1 (configuration not stated) | 1080
CSc1ccc2c(c1)C(N1CCN(C)CC1)Cc1ccccc1S2 (configuration not stated) | 869
Cc1cnc(C(=O)N[C@@H]2CCC[C@@H]2C(=O)N2CCSCC2)cn1 | 633
O=c1[nH]c(SCc2nnc(Nc3ccccc3)s2)nc2sc3c(c12)CCC3 | 801
Cc1ccccc1NC(=O)CN1C(=O)CCc2cc(Br)ccc21 | 884
O=[N+]([O-])c1cccc(S(=O)(=O)Nc2ccc(O)c(-c3c(O)ccc4ccccc34)c2)c1 | 801
CNC(=O)C1CCCN1C(=O)Nc1ccc(C)cc1 (configuration not stated) | 640
CCc1nc2c(c(=O)n1CC(=O)NCc1cccc(C)c1)CN(Cc1ccccc1)CC2 | 661
Cc1cccc(CC(=O)N2C[C@@H]3C[C@H]2C[C@@H]3NC(=O)c2cccs2)c1 | 778
CCOc1cccc(-c2noc(Cn3c(=O)n(-c4cccc(C)c4)c(=O)c4sccc43)n2)c1 | 1060
CNC(=O)C1CN(S(=O)(=O)c2cccc(F)c2)CC12CCCC2 (configuration not stated) | 778
Cc1ccc(C)c(NC(=O)Cn2ccc3ccc(-c4nnc(C)o4)cc32)c1 | 1150
COc1ccc(-c2csc(C(=O)n3nc(C)cc3C)c2-n2cccc2)cc1 | 1300
CNC(=O)C1CCCN(C(=O)Nc2ccc(NC(=O)Nc3ccc(C)c(C)c3)cc2)C1 (configuration not stated) | 722
COc1ccc(-c2nc(NCCCN3CCN(C)CC3)c3ccccc3n2)cc1 | 828
COc1ccc(N(CCC#N)S(=O)(=O)c2cccc3nsnc23)cc1 | 789
CCc1ccc(NS(=O)(=O)c2ccc3c(c2)C(=O)N(C)c2ncccc2O3)cc1 | 1010
O=C(CNC(=O)c1ccc2c(c1)OCO2)Nc1nc2ccccc2[nH]1 | 611
CCc1nc(NC(=O)Cn2nc3c(cc2=O)CCCCC3)sc1C | 828
O=C(Nc1nnc(SCc2nnc(-c3ccccc3)o2)s1)c1cccc(Cl)c1 | 977
CCCS(=O)(=O)NCCn1c(C)cnc1-c1ccccc1 | 566

The remaining lines, values ahead:

RP-LC retention time [s] | Structure (SMILES)
848 | O=C(NC1CCCCC1)c1cccc(Nc2c(-c3ccc(F)cc3)nc3cnccn23)c1
689 | Cc1ccc(-c2cc3n(n2)CCCN(C(=O)c2ccncc2)C3)cc1
597 | O=C(CCc1nnc2ccc(N3CCCCC3)nn12)N1CCN(c2ccccn2)CC1
751 | Cc1cccc2nnc(N3CCN(C(=O)c4ccc(C(F)(F)F)s4)CC3)n12
942 | CC(=O)N1CCC(C(=O)NCc2ccccc2)(N(C(=O)c2ccc(C)cc2)C2CCCC2)CC1
716 | O=C(c1cc(S(=O)(=O)N2CCCC(C(=O)N3CCCCC3)C2)c[nH]1)N1CCCC1 (configuration not stated)
622 | Cc1nc(-c2cn(C(C)C)c3ncccc23)sc1C(=O)N1CCN(C(C)C)CC1
926 | O=C(CN1C(=O)CCCc2cc(S(=O)(=O)N3CCCCC3)ccc21)NCc1ccc(Cl)cc1
1060 | CSc1ccc(CNC(=O)C2CCCN(c3ncc(-c4ccccc4)cn3)C2)cc1 (configuration not stated)
616 | O=C(c1nc(CS(=O)(=O)c2ccccc2)no1)N1CCN(c2ccccn2)CC1
578 | CCN1CCN(CCNC(=O)c2ccc3nc(-c4ccc(Cl)cc4)cn3c2)CC1
832 | O=C(c1cccc2[nH]ccc12)N1CCN(c2cc(-c3cccs3)[nH]n2)CC1
767 | Cc1nnc(N2CCCC(C(=O)Nc3ccccc3Cl)C2)c2nn(-c3ccccc3)c(C)c12 (configuration not stated)
716 | Cn1c(C2CCN(C(=O)c3ccc(C(F)(F)F)s3)C2)nc2cccnc21 (configuration not stated)
613 | COc1ccc(NC(=O)Cn2ccnc2-c2ccnc(N3CCOCC3)c2)c(OC)c1
973 | O=C(NC1CCCCCC1)c1ccc2ccnc(N3CCN(c4ccc(F)cc4)CC3)c2c1
1100 | COc1ccc(NC(=O)Cn2nc(N3CCCC(C)C3)c3ccccc3c2=O)c(OC)c1 (configuration not stated)

RP-LC retention time [s] | Structure (SMILES)
993 | CCn1c(=O)c(N2CCC(NC(=O)Nc3cc(C)ccc3C)CC2)nc2cccnc21
797 | CN1CCCCCCN(C(=O)c2ccsc2)[C@H]2CCC[C@H]2C1=O
877 | Cc1ccccc1NC(=O)C1CCCN(C(=O)c2nn(C)c3c2CN(C(=O)CC2CCCC2)CC3)C1 (configuration not stated)
603 | O=C(Cn1ncc2c(N3CCN(c4ccccn4)CC3)ncnc21)N1CCN(c2ccccc2)CC1
1110 | CCOC(=O)c1c(N2CCOCC2)nc2ccc([N+](=O)[O-])cc2c1-c1ccccc1
614 | Cc1ccnc(NC(=O)C2CCN(S(=O)(=O)c3cc(C(=O)N4CCOCC4)cs3)CC2)c1
716 | O=C(c1ccccc1)N1CCC(n2c(-c3ccco3)nc3cccnc32)C1 (configuration not stated)
784 | O=C(c1ccccn1)N1CCN(C(=O)c2nnn3c2COC(c2ccc(Cl)cc2)C3)CC1 (configuration not stated)
728 | CCC(NC(=O)C1CCCN(c2cnc3nccnc3c2)C1)c1cccs1 (configuration not stated)
586 | CN(CCNC(=O)C1CCc2nc(N3CCOCC3)ncc2C1)C1CCCCC1 (configuration not stated)
863 | COc1ccc(S(=O)(=O)N2CCC(OCc3noc(C4CCCO4)n3)CC2)cc1 (configuration not stated)
880 | O=C(c1ccoc1)N1CCC(Oc2nccnc2N2CCc3ccccc32)C1 (configuration not stated)
698 | O=C(c1n[nH]c2c1CCCC2)N1CCC2(CC1)N=C(c1ccccc1)NO2
1090 | O=C(Cn1cnc2c(sc3nc(-c4ccccc4)ccc32)c1=O)NCCC1=CCCCC1
551 | CN1CCN(c2c(C(=O)c3ccccc3)cnc3cc4c(cc23)OCCO4)CC1
659 | CCNc1cc(N2CCC(CCC(=O)NCc3cccc(C)c3)CC2)ncn1
